According to EP0726261A1, “Herbidical 1,2,4 thiadiazoles” (American Cyanamid Company, priority 1995, dated 1996):

Columns and labels:
Format in all cases: in vivo
[1] = tested on: Amaranthus retroflexus; experiment: Preemergence herbicidal activity (Example 67); conditions: pre, 800 g/ha
Outline: (§1)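 Test compound was dissolved in acetone containing 0.5% alkylphenol/ethylene oxide condensate, diluted with water and sprayed onto the soil surface of cups at 800g/ha in 400 L/ha (3 bar nozzle). Cups were kept under standard greenhouse conditions and rated about 1-3 weeks after treatment.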

[2] = tested on: Ipomoea hederacea; experiment: Preemergence herbicidal activity (Example 67); conditions: pre, 800 g/ha
Outline: as §1

[3] = tested on: Abutilon theophrasti; experiment: Preemergence herbicidal activity (Example 67); conditions: pre, 800 g/ha
Outline: as §1

[4] = tested on: Veronica persica; experiment: Preemergence herbicidal activity (Example 67); conditions: pre, 800 g/ha
Outline: as §1

[5] = tested on: Zea mays; experiment: Preemergence herbicidal activity (Example 67); conditions: pre, 800 g/ha
Outline: as §1

[6] = tested on: Galium aparine; experiment: Preemergence herbicidal activity (Example 67); conditions: pre, 800 g/ha
Outline: as §1

[7] = tested on: Helianthus annuus; experiment: Preemergence herbicidal activity (Example 67); conditions: pre, 800 g/ha
Outline: as §1

[8] = tested on: Chenopodium album; experiment: Preemergence herbicidal activity (Example 67); conditions: pre, 800 g/ha
Outline: as §1

[9] = tested on: Setaria viridis; experiment: Preemergence herbicidal activity (Example 67); parameters: herbicide rating, SETVI: scale not given here; conditions: pre, 800 g/ha
Outline: as §1

[10] = tested on: Setaria viridis; experiment: Postemergence herbicidal activity (Example 67); conditions: pos, 800 g/ha
Outline: (§2)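 Seedlings 3-6 weeks old, grown in peat/volcanic clay/bark/polyamide substrate mixed 1:3 with loamy sand, were sprayed postemergence at 800g/ha in 400 L/ha. Compound dissolved in acetone with 0.5% TRITON X-155, diluted in water. Plants kept in greenhouse and rated visually after 10-21 days.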

[11] = tested on: Amaranthus retroflexus; experiment: Postemergence herbicidal activity (Example 67); conditions: pos, 800 g/ha
Outline: as §2

[12] = tested on: Ipomoea hederacea; experiment: Postemergence herbicidal activity (Example 67); conditions: pos, 800 g/ha
Outline: as §2

[13] = tested on: Triticum aestivum; experiment: Postemergence herbicidal activity (Example 67); conditions: pos, 800 g/ha
Outline: as §2

[14] = tested on: Abutilon theophrasti; experiment: Postemergence herbicidal activity (Example 67); conditions: pos, 800 g/ha
Outline: as §2

[15] = tested on: Veronica persica; experiment: Postemergence herbicidal activity (Example 67); conditions: pos, 800 g/ha
Outline: as §2

[16] = tested on: Zea mays; experiment: Postemergence herbicidal activity (Example 67); conditions: pos, 800 g/ha
Outline: as §2

[17] = tested on: Galium aparine; experiment: Postemergence herbicidal activity (Example 67); conditions: pos, 800 g/ha
Outline: as §2

[18] = tested on: Alopecurus myosuroides; experiment: Postemergence herbicidal activity (Example 67); conditions: pos, 800 g/ha
Outline: as §2

[19] = tested on: Hordeum vulgare; experiment: Postemergence herbicidal activity (Example 67); conditions: pos, 800 g/ha
Outline: as §2

[20] = tested on: Helianthus annuus; experiment: Postemergence herbicidal activity (Example 67); conditions: pos, 800 g/ha
Outline: as §2

[21] = tested on: Chenopodium album; experiment: Postemergence herbicidal activity (Example 67); conditions: pos, 800 g/ha
Outline: as §2

[22] = tested on: Alopecurus myosuroides; experiment: Preemergence herbicidal activity (Example 67); parameters: herbicide rating, ALOMY: scale not given here; conditions: pre, 800 g/ha
Outline: as §1

[23] = tested on: Hordeum vulgare; experiment: Preemergence herbicidal activity (Example 67); parameters: herbicide rating, HORVW: scale not given here; conditions: pre, 800 g/ha
Outline: as §1

[24] = tested on: Triticum aestivum; experiment: Preemergence herbicidal activity (Example 67); parameters: herbicide rating, TRZAW: scale not given here; conditions: pre, 800 g/ha
Outline: as §1

[25] = rated about 1-3 weeks after treatment

For O=C(NCc1cccs1)c1nsc(-c2ccccc2)n1 [Example 49], which “AMA RE rating” value [1] is on record?
The value was 0.

What about the “IPO HE rating” value [2] of the same compound?
The value was 0.

And the “ABU TH rating” value [3]?
Its value is 0.

And the “VER PE rating” value [4]?
Its value is 0.

And the “ZEA MX rating” value [5]?
Its value is 0.

What about the “GAL AP rating” value [6] of the same compound?
Its value is 0.

And the “HEL AN rating” value [7]?
The value was 1 (1-5%).

And the “CHE AL rating” value [8]?
The value was 0.

And the “SET VI rating” value [9]?
The value was 0.

And the “SET VI rating” value [10]?
The value was 8 (91-99%).

What about the “AMA RE rating” value [11] of the same compound?
Its value is 3 (16-29%).

What about the “IPO HE rating” value [12] of the same compound?
Its value is 3 (16-29%).

What about the “TRZ AW rating” value [13] of the same compound?
Its value is 3 (16-29%).

And the “ABU TH rating” value [14]?
The value was 4 (30-44%).

What about the “VER PE rating” value [15] of the same compound?
The value was 3 (16-29%).

And the “ZEA MX rating” value [16]?
Its value is 4 (30-44%).

What about the “GAL AP rating” value [17] of the same compound?
Its value is 6 (65-79%).

And the “ALO MY rating” value [18]?
The value was 5 (45-64%).

What about the “HOR VW rating” value [19] of the same compound?
The value was 4 (30-44%).

And the “HEL AN rating” value [20]?
The value was 8 (91-99%).

What about the “CHE AL rating” value [21] of the same compound?
Its value is 4 (30-44%).

And the “ALO MY rating” value [22]?
Its value is 0.

What about the “HOR VW rating” value [23] of the same compound?
The value was 0.

What about the “TRZ AW rating” value [24] of the same compound?
The value was 0.

Which results are given for C[C@H](NC(=O)c1nsc(-c2cccc(C(F)(F)F)c2)n1)c1ccccc1 [Example 42]?
AMA RE rating [1]: 0; IPO HE rating [2]: 0; ABU TH rating [3]: 0; VER PE rating [4]: 2 (6-15%); ZEA MX rating [5]: 0; GAL AP rating [6]: 2 (6-15%); HEL AN rating [7]: 0; CHE AL rating [8]: 5 (45-64%); SET VI rating [9]: 0; SET VI rating [10]: 5 (45-64%); AMA RE rating [11]: 0; IPO HE rating [12]: 2 (6-15%); TRZ AW rating [13]: 2 (6-15%); ABU TH rating [14]: 0; VER PE rating [15]: 0; ZEA MX rating [16]: 0; GAL AP rating [17]: 0; ALO MY rating [18]: 1 (1-5%); HOR VW rating [19]: 2 (6-15%); HEL AN rating [20]: 3 (16-29%); CHE AL rating [21]: 3 (16-29%); ALO MY rating [22]: 0; HOR VW rating [23]: 0; TRZ AW rating [24]: 0

O=C(NCc1cccs1)c1nc(C=Cc2ccccc2)ns1 [Example 28] was tested. Which “herbicide rating, AMARE” value [1, 25] did it give?
Its value is 0.

What about the “herbicide rating, IPOHE” value [2, 25] of the same compound?
The value was 0.

And the “herbicide rating, ABUTH” value [3, 25]?
Its value is 0.

And the “herbicide rating, VERPE” value [4, 25]?
Its value is 0.

What about the “herbicide rating, ZEAMX” value [5, 25] of the same compound?
Its value is 0.

And the “herbicide rating, GALAP” value [6, 25]?
Its value is 0.

And the “herbicide rating, HELAN” value [7, 25]?
The value was 0.

And the “herbicide rating, CHEAL” value [8, 25]?
The value was 0.

And the “herbicide rating, SETVI” value [9, 25]?
The value was 0.

And the “herbicide rating, SETVI” value ([10]; rated after 10-21 days)?
The value was 3 (16-29%).

What about the “herbicide rating, AMARE” value ([11]; rated after 10-21 days) of the same compound?
Its value is 0.

And the “herbicide rating, IPOHE” value ([12]; rated after 10-21 days)?
The value was 0.

And the “herbicide rating, TRZAW” value ([13]; rated after 10-21 days)?
The value was 0.

And the “herbicide rating, ABUTH” value ([14]; rated after 10-21 days)?
Its value is 1 (1-5%).

And the “herbicide rating, VERPE” value ([15]; rated after 10-21 days)?
The value was 2 (6-15%).

And the “herbicide rating, ZEAMX” value ([16]; rated after 10-21 days)?
The value was 0.

And the “herbicide rating, GALAP” value ([17]; rated after 10-21 days)?
The value was 0.

What about the “herbicide rating, ALOMY” value ([18]; rated after 10-21 days) of the same compound?
The value was 1 (1-5%).

And the “herbicide rating, HORVW” value ([19]; rated after 10-21 days)?
Its value is 0.

And the “herbicide rating, HELAN” value ([20]; rated after 10-21 days)?
The value was 0.

And the “herbicide rating, CHEAL” value ([21]; rated after 10-21 days)?
Its value is 2 (6-15%).

What about the “herbicide rating, ALOMY” value [22, 25] of the same compound?
The value was 0.

What about the “herbicide rating, HORVW” value [23, 25] of the same compound?
The value was 0.

And the “herbicide rating, TRZAW” value [24, 25]?
Its value is 0.

What does the source list for O=C(NCc1cccs1)c1nc(-c2cccc(F)c2)ns1 [Example 44]?
AMA RE rating [1]: 0; IPO HE rating [2]: 3 (16-29%); ABU TH rating [3]: 0; VER PE rating [4]: 0; ZEA MX rating [5]: 0; GAL AP rating [6]: 0; HEL AN rating [7]: 0; CHE AL rating [8]: 0; SET VI rating [9]: 3 (16-29%); SET VI rating [10]: 3 (16-29%); AMA RE rating [11]: 0; IPO HE rating [12]: 3 (16-29%); TRZ AW rating [13]: 3 (16-29%); ABU TH rating [14]: 0; VER PE rating [15]: 0; ZEA MX rating [16]: 2 (6-15%); GAL AP rating [17]: 3 (16-29%); ALO MY rating [18]: 0; HOR VW rating [19]: 3 (16-29%); HEL AN rating [20]: 0; CHE AL rating [21]: 0; ALO MY rating [22]: 4 (30-44%); HOR VW rating [23]: 0; TRZ AW rating [24]: 0
